Reference: article PMC6587507, “Comparison of the metabolism of 10 chemicals in human and pig skin explants” (Journal of Applied Toxicology, 2018)

Legend:
skin explants = assay: Skin explant assay, radioactivity in culture medium bound to proteins; format: in vitro ADME; conditions: medium with 4% BSA; species not stated
[1] = ref Chemspider (www.chemspider.com), cited from earlier work
pig ear skin explants [2] = assay: Cutaneous distribution and mass balance of radioactivity in pig skin explants; conditions: pig skin; for % Radioactivity in culture media after 24 h / Mass balance (% of applied dose at end of incubation): 2.4 nmol/cm^2; for Mass balance (% of applied dose at end of incubation): 48 h; for Skin surface radioactivity / Medium radioactivity / Skin radioactivity: end of incubation (48 h), mean ± SD
Method: (§1) Human abdominal skin was obtained (with consent for research from a commercial supplier [L’Union Clinic, Rangueil hospital and Icelltis, Toulouse, France] with certified ethical procedures) from six male and 34 female healthy donors, 41 ± 11 years of age, undergoing cosmetic surgery. Abdominal skin was kept at 4°C during transports and placed in culture within 3 hours of surgery. Pig ear skin was a waste product of the meat industry (without hot steam treatment) from domestic pigs (female Pietrain breed, 6 months old, 80‐100 kg) obtained from a local slaughterhouse (Montauban, France). Ears were taken from the animals within 5 minutes of slaughter and were kept at 4°C during transport to the laboratory, which lasted a maximum of 2 hours. Pig skin samples were dried and then gently shaved.
(§2) The experiment and the preparation of the culture medium were performed under sterile conditions. Human and pig skin was cut with a dermatome to a thickness of 450 ± 50 μm. Skin punches were seeded dermal side down in polycarbonate Transwell® inserts from Corning Life Sciences (Avon, France; 4.16 cm^2 application area with an 8 μm pore size filter). […] The inserts were placed in a six‐well plate containing 1.5 mL culture medium and the skin explants incubated in a standard incubator at 37°C, under an atmosphere of 5% CO2 and 50 ± 10% relative humidity. The culture medium was Dulbecco's modified Eagle medium without phenol red supplemented with 8 mM L‐glutamine, 2 μg/mL streptomycin/penicillin, 25 ng/mL fungizone and 50 ng/mL gentamycin. Skin explants were incubated for 1 hour before application of the formulation.
(§3) The dosing volume was 10 μL/cm^2. For pig skin metabolism studies, which were carried out before the human skin experiments to ensure the analytics were optimal, 2.4 nmol/cm^2 of each chemical (only the ^14C‐labeled form) was applied on the skin and incubated for 24 hours for the measurement of metabolites in the medium. These tissues were further incubated for a total of 48 hours, with a replacement of the culture medium after 24 hours. This longer incubation time and the standard doses of 2.4 nmol/cm^2 were used to maximize the likelihood of the skin forming metabolites to develop analytical methods. The metabolites profiles in pig and human skin were compared in the medium sample at 24 hours of incubation. The metabolite profiles for the 48‐hour timepoint are not reported here since humans skin metabolism was measured at 24 hours only; however, for completeness, the distribution of radioactivity at the end of both pig (48 hours) and human (24 hours) skin incubations is reported. […] The doses were obtained by mixing radiolabeled and cold chemical. One replicate disc per donor and per dose was used. All chemicals were tested on four donors of pig and human skin, except for 2‐AAF and 4‐amino‐3‐nitrophenol (4‐A‐3‐NP), for which three donors were used. The medium was removed after 24 hours of incubation and stored at −20°C for analysis.
(§4) At the end of the experiment, the trans‐wells were dismantled and washed with appropriate solvent for each chemical. […] The cotton swabs were placed in 5 mL of appropriate solvent in a scintillation counting flask and placed in a sonicator bath for 20 minutes. Aliquots of 1 mL were counted by liquid scintillation, after addition of 15 mL of scintillation liquid. Tissue culture inserts were washed with 10 mL of appropriate solvent. One aliquot of 1 mL was counted by liquid scintillation, after addition of 15 mL of scintillation liquid. After media removal, wells were washed twice with 1 mL of the appropriate solvent. Washing solutions were counted by liquid scintillation, after addition of 15 mL of scintillation liquid.
(§5) Pig skin explants were digested using 3 mL Soluable (60°C for 24 hours) and counted by liquid scintillation. Skin extraction process was adapted according to the physicochemical properties of each chemical and its potential metabolites.

[3] = test system: human abdominal skin explants; assay: Cutaneous distribution and mass balance of radioactivity in human skin explants; conditions: human skin; for % Radioactivity in culture media after 24 h / Mass balance (% of applied dose at end of incubation): 24 h; for Skin surface radioactivity / Medium radioactivity / Skin radioactivity: end of incubation (24 h), mean ± SD
Method: as §1, §2, §3, §4, §5

[4] = test system: human abdominal skin explants
Method: as §1, §2, §3
(§6) After centrifugation, a 100 μL aliquot of the extract was counted by liquid scintillation. The pellet was dissolved in 3 mL Soluable (60°C, 24 hours) and then counted by liquid scintillation.
(§7) Analysis of the chemicals and their metabolites in medium after 24 hours of incubation with pig and human skin was measured by radio‐high‐performance liquid chromatography (HPLC) using an HPLC 1100 Series, Agilent and a Flow Scintillation Analyzer, Radiomatic 610 TR, Perkin Elmer (Villebon‐sur‐Yvette, France). […] To confirm that metabolites were the same in pig and human skin, medium samples were co‐injected on the new column. The metabolites were identified by LC‐electrospray ionization‐HRMS (HPLC‐ESI‐HRMS) with a RSLC3000 HPLC system coupled to a LTQ‐Orbitrap XL mass spectrometer (Thermo Scientific). The HPLC analytical conditions for identification and quantification of the metabolites for each chemical are summarized in Supporting information Table S1.

pig ear skin explants [5] = test system: pig ear skin explants
Method: as §1, §2, §3, §6, §7

[6] = test system: N‐acetyltransferase (NAT)1 enzyme; set-up: method as in unpublished data; conditions: ref unpublished data; cited from earlier work

In the case of `Nc1ccc(Cl)cc1` [4‐Chloroaniline], the “Radioactivity detected in the culture medium bound to proteins” value (skin explants) is given as ~ 20%, the Maximum water solubility [1] is given as 3200 µg/mL and the “% Radioactivity in culture media after 24 h” value (“% Radioactivity” below) (pig ear skin explants [2]) is given as 54.3 ± 0.6%. For the same compound, the “Mass balance (% of applied dose at end of incubation)” value (pig ear skin explants [2]) was 99.2 ± 10.8 % of applied dose, the Skin surface radioactivity (pig ear skin explants [2]) was 0.7 ± 0.2 % of the applied dose and the Medium radioactivity (pig ear skin explants [2]; listed as 4-Chloroaniline) was 82.1 ± 8.8 % of the applied dose. The Skin radioactivity (pig ear skin explants [2]; listed as 4-Chloroaniline) was 16.3 ± 2.3 % of the applied dose, the Medium radioactivity (pig ear skin explants [2]; listed as 4‐chloroaniline) was 82 % of the applied dose and the Skin radioactivity (pig ear skin explants [2]; listed as 4‐chloroaniline) was 16 % of the applied dose. The “% Radioactivity” value [3] was 49.7 ± 4.4%, the “Mass balance (% of applied dose at end of incubation)” value [3] was 86.2 ± 0.7 % of applied dose and the Skin surface radioactivity [3] was 2.2 ± 0.5 % of the applied dose. The Medium radioactivity ([3]; listed as 4-Chloroaniline) was 49.7 ± 4.4 % of the applied dose, the Skin radioactivity ([3]; listed as 4-Chloroaniline) was 34.4 ± 3.8 % of the applied dose and the Medium radioactivity ([3]; listed as 4‐chloroaniline) was 50 % of the applied dose. For the same compound, the Skin radioactivity ([3]; listed as 4‐chloroaniline) was 35 % of the applied dose, the “Metabolites detected in the skin or culture media” value ([4]; human skin) was “no metabolites were detected” and the “Metabolites detected in the skin or culture media” value (pig ear skin explants [5]; pig skin) was “no metabolites were detected”.

In the case of `Nc1ccc(O)cc1[N+](=O)[O-]` [4‐A‐3‐NP, 4‐amino‐3‐nitrophenol], the LogP [1] is listed as 0.41, the Maximum water solubility [1] is listed as 2000 µg/mL and the “% Radioactivity” value (pig ear skin explants [2]) is listed as 51.9 ± 6.7%. For the same compound, the “Mass balance (% of applied dose at end of incubation)” value (pig ear skin explants [2]) was 96.0 ± 2.6 % of applied dose, the Medium radioactivity (pig ear skin explants [2]) was 69.9 ± 5.8 % of the applied dose and the Skin radioactivity (pig ear skin explants [2]) was 15.6 ± 5.3 % of the applied dose. For the same compound, the Skin surface radioactivity (pig ear skin explants [2]) was 10.5 ± 5.1 % of the applied dose, the “Substrate for NAT1” value [6] was “not a substrate” and the “% Radioactivity” value [3] was 62.3 ± 3.4%. The “Mass balance (% of applied dose at end of incubation)” value [3] was 94.4 ± 3.0 % of applied dose, the Medium radioactivity [3] was 62.3 ± 3.4 % of the applied dose and the Skin radioactivity [3] was 28.6 ± 4.5 % of the applied dose. For the same compound, the Skin surface radioactivity [3] was 3.6 ± 2.1 % of the applied dose, the “N‐acetylated metabolite” value ([4]; human skin incubations) was “not detected” and the “Parent compound in the medium after 24 h” value ([4]; human skin, 24 h, mean ± SEM) was 0.1 ± 0.06 % Applied dose. The “N‐acetylated metabolite” value (pig ear skin explants [5]; pig skin incubations) was “not detected” and the “Parent compound in the medium after 24 h” value (pig ear skin explants [5]; pig skin, 24 h, mean ± SEM) was 0.6 ± 0.2 % Applied dose.
